These are literature values, as cited in paper PMC8999965 (Materials, 2022).

On the set-up of the series: method as in earlier work. Particulars: for EI(PCOP=0), environmental index excluding Photochemical Oxidation Potential: PCOP score excluded from summation; for EI, overall environmental index: sum of toxicity and environmental impact scores.

With `CCN1CCOCC1` [4-ethylmorpholine], the “EI(PCOP=0), environmental index excluding Photochemical Oxidation Potential” value is listed as 2.12 and the “EI, overall environmental index” value is 2.12.
As for `O=CN1CCOCC1` [4-formylmorpholine], the “EI(PCOP=0), environmental index excluding Photochemical Oxidation Potential” value was 0.51 and the “EI, overall environmental index” value is on record as 0.51.
As to `C[S+](C)[O-]` [DMSO, dimethyl sulfoxide], the “EI(PCOP=0), environmental index excluding Photochemical Oxidation Potential” value is 0.26 and the “EI, overall environmental index” value is on record as 11.68.
For `CC(C)=O` [acetone], the “EI(PCOP=0), environmental index excluding Photochemical Oxidation Potential” value was 0.66 and the “EI, overall environmental index” value was 1.27.
Consider `CC#N` [acetonitrile], for which the “EI(PCOP=0), environmental index excluding Photochemical Oxidation Potential” value is given as 1.88 and the “EI, overall environmental index” value is listed as 1.88.
As for `C1COCCN1` [morpholine], the “EI(PCOP=0), environmental index excluding Photochemical Oxidation Potential” value is listed as 2.95 and the “EI, overall environmental index” value is 2.95.
